Source: patent US20160120853A1, “TACROLIMUS AND ANALOGUES THEREOF FOR MEDICAL USE” (CHRONOS THERAPEUTICS LIMITED, priority 2013, published 2016)
Entries after “also recorded” stand apart in the source; their conditions may differ.

Tests used:
worms = assay: worm lifespan, strain not stated (close structural analogues, dosing frequency); type: in vivo; design: Healthspan / Median Lifespan / Max Lifespan: unit not given here; details: for ability to extend the lifespan of worms compared with tacrolimus: lifespan plots FIG. 7 / FIG. 8
Text: (§1) Worm cultures of at least 80 worms were manually assessed daily for the duration of the lifespan.

Bus8 worms = assay: worm lifespan (Healthspan, Median lifespan) in Bus8 background; type: in vivo; design: Healthspan: unit not given here; details: for Healthspan: Control 6.87; for Median Lifespan: Control 10.10
Text: as §1

C. elegans = assay: lipid accumulation in worms, Oil-Red-O staining; type: in vivo; details: for age dependent increase in fat (lipid) accumulation: Oil-Red-O, versus DMSO control
Text: Tacrolimus is able to delay the age dependent increase in fat accumulation in C. elegans. Worms are a versatile model of obesity ref: (Zheng & Greenway, 2012)
Oil-Red-O is a fat-soluble dye used for staining lipids and is quantified by colour light microscopy.

Bus5 worms = assay: worm lifespan (Healthspan, Median lifespan) in Bus5 worms; type: in vivo; details: for Healthspan: Control 10.93; for Median Lifespan: Control 15.08
Text: as §1

TNF-α = assay: blood TNF-α levels in healthy human volunteers after 0.3 mg capsule; type: in vivo; details: 0.3 mg oral capsule
Procedure: (§2) One oral capsule as above containing 0.3 mg tacrolimus was administered to groups of healthy human volunteers. […] The average trough level of tacrolimus (level after 24 hours of administration of each dose) observed was approximately 220 pg/mL.

S. Cerevisiae = assay: yeast bioscreen, Chronological Lifespan Profile of ageing yeast cultures; type: cell-based
Text: The yeast bioscreen measures the Chronological Lifespan Profile of an ageing yeast cultures. The median lifespan is defined as the time at which 50% of a given population has died. Relative viability (expressed in the below chart) compares the effect of treatment on a cultures viability as a fraction of control vehicle treated cultures.
RDC5 is thus believed to be able to delay ageing and the onset of age-related diseases such as unwanted fat accumulation.

[1] = blood levels of tacrolimus after one 0.3 mg oral capsule in healthy human volunteers; type: in vivo
Procedure: A hard gelatine capsule was filled with the following composition:
as §2

Osteoblast cells = assay: response to oxidative stress of Osteoblast cells; type: cell-based
[2] = blood / plasma metabolic biomarkers of aged rats after 6 m treatment; type: in vivo, rat
Text: A range of techniques has been used to determine the effect RDC5 has on levels of blood biomarkers of obesity and metabolic disorders.
Metabolic biomarkers tested included: • Ketone Bodies—kinetic enzymatic • Free Fatty acids—ACS-ACOD Enzymatic • Glycerol—Calometric • Triglycerides—GPO-POD • HDL Cholesterol—CHO-PAP • LDL Cholesterol—Enzymatic • Total Cholesterol—CHO-PAP
The RDC5 treated and control treated animals had their blood plasma profiled at the end of the investigations.

[3] = post mortem MRI scanning of aged rats, fat:lean ratio; type: in vivo, rat; details: for sub-cutaneous fat / visceral fat / fat within the body cavity: 24 month old rats, MRI, versus control treated
Text: FIG. 11 presents MIR data comparing 3 month old untreated animal, 24 month old control treated animal and 24 month old tacrolimus treated animal. […] This is consistent with a cosmetic improvement (with respect to reduction in sub-cutaneous fat) and a health improvement (with respect to reduction of fat near internal organs) produced by tacrolimus treatment. The MIR images are marked (areas 1) to show internal fat areas. The sub-cutaneous fat layer is the light grey outer ring only easily seen in the 24 month old untreated control.

[4] = aged rat study: weekly body weight and survival; type: in vivo
Text: Aged rats are known to increase in body weight dramatically in late adulthood. Aged rats were being used as a model in RAT_ND_01 and body weights and tissue samples were taken from the rats in this trial. Rats were 18 m of age at the start of the 6 m trial. The dosage is seen in FIG. 4.
Throughout this study (i.e. from 18 months of age onwards), individual weekly body weight assessments were made for both the control and RDC5 treated group. […] At the 1 and 2 week time-points, before the onset of treatment, no significant difference between RDC5 and control treatment could be observed. Control treated rat body weight continued to increase over time from approximately 250 g to over 320 g at the 6 month time-point (at 24 months of age). […] Weight levels dropped initially however not below a healthy age (approx. 230 g) and remained constant (+/−20 g) for the remainder of the study.
Fifty female Fischer rats initially aged 18 months were used in this study. Animals were housed at standard temperature (22±1° C.) in light controlled environment (lights on from 7 am to 8 pm) with ad libitum access to food and water with softer food introduced at 17 weeks to encourage food intake. Half the animals were treated with vehicle (5 ml/kg, s.c.) 6 days a week and half were treated with RDC5 (1 mg/kg, s.c.) 6 days a week. Individual body weights were recorded at baseline and then once a week until the end of the study.

[5] = FIG. 8 experiment, Control 10.4
[6] = 6 m treatment in rats, versus control
[7] = blood plasma at end of study, versus control treated

CC[C@@H]1/C=C(\C)C[C@H](C)C[C@H](OC)[C@H]2O[C@@](O)(C(=O)C(=O)N3CCCC[C@H]3C(=O)O[C@H](/C(C)=C/[C@@H]3CC[C@@H](O)[C@H](OC)C3)[C@H](C)[C@@H](O)CC1=O)[C@H](C)C[C@@H]2OC [Ascomycin]
Healthspan (worms; FIG. 7 experiment, Control 3.0): 4.1 | Median Lifespan (worms; FIG. 7 experiment, Control 5.7): 7.2 | Max Lifespan (worms; FIG. 7 experiment, Control 8.7): 10.6 | ability to extend the lifespan of worms compared with tacrolimus (worms): as effectively as tacrolimus

CCC[C@@H]1/C=C(\C)C[C@H](C)C[C@H](OC)C2O[C@@](O)(C(=O)C(=O)N3CCCC[C@H]3C(=O)O[C@H](/C(C)=C/[C@@H]3CC[C@@H](O)[C@H](OC)C3)[C@H](C)[C@@H](O)CC1=O)[C@H](C)C[C@@H]2OC [Dihydrotacrolimus]
Healthspan (worms; FIG. 8 experiment, Control 5.9): 7.3 | Median Lifespan (worms; FIG. 8 experiment, Control 8.1): 10.3 | Max Lifespan (worms; [5]): 13.2 | ability to extend the lifespan of worms compared with tacrolimus (worms): almost as effectively as tacrolimus

C=CC[C@@H]1/C=C(\C)C[C@H](C)C[C@H](OC)[C@H]2O[C@@](O)(C(=O)C(=O)N3CCCC[C@H]3C(=O)O[C@H](/C(C)=C/[C@@H]3CC[C@@H](O)[C@H](OC)C3)[C@H](C)[C@@H](O)CC1=O)[C@H](C)C[C@@H]2OC [RDC5, tacrolimus]
Healthspan % increase wrt control (Bus8 worms; Bus8, 1 ug/ml): 0.5% | Median Lifespan % increase wrt control (Bus8 worms; Bus8, 1 ug/ml): 7.5% | Healthspan (Bus8 worms; Bus8, 1 ug/ml): 6.90 | Median Lifespan (Bus8 worms; Bus8, 1 ug/ml): 10.86 | Healthspan % increase wrt control (Bus8 worms; Bus8, 10 ug/ml): 14% | Median Lifespan % increase wrt control (Bus8 worms; Bus8, 10 ug/ml): 20% | Healthspan (Bus8 worms; Bus8, 10 ug/ml): 7.85 | Median Lifespan (Bus8 worms; Bus8, 10 ug/ml): 12.18 | Healthspan % increase wrt control (Bus8 worms; Bus8, 20 ug/ml): −9% | Median Lifespan % increase wrt control (Bus8 worms; Bus8, 20 ug/ml): 16% | Healthspan (Bus8 worms; Bus8, 20 ug/ml): 6.23 | Median Lifespan (Bus8 worms; Bus8, 20 ug/ml): 11.70 | Healthspan % increase wrt control (Bus8 worms; Bus8, 40 ug/ml): −3% | Median Lifespan % increase wrt control (Bus8 worms; Bus8, 40 ug/ml): 16% | Healthspan (Bus8 worms; Bus8, 40 ug/ml): 6.67 | Median Lifespan (Bus8 worms; Bus8, 40 ug/ml): 11.70 | dose at which efficacy peaks for Median Lifespan extension (Bus8 worms; Bus8 worms): 10 µg/mL | most efficacious dose at extending Healthspan (Bus8 worms; Bus8 worms, doses tested 1, 10, 20, 40 ug/ml): 10 µg/mL | Healthspan and Median lifespan of populations of worms (Bus8 worms; cultures of at least 80 worms, assessed daily): able to extend | least effective dose (Bus8 worms; dose response in worms, FIG. 9): 40 µg/mL | age dependent increase in fat (lipid) accumulation (C. elegans): shallower rise | age dependent increase in fat (lipid) accumulation (C. elegans; listed as Tacrolimus): able to delay | time at which maximal lipid accumulation happens (C. elegans; days post adulthood, DMSO control day 4): 7 days | Healthspan % increase wrt control (Bus5 worms; Bus5, 1 ug/ml): 33% | Median Lifespan % increase wrt control (Bus5 worms; Bus5, 1 ug/ml): 23% | Healthspan (Bus5 worms; Bus5, 1 ug/ml): 14.55 | Median Lifespan (Bus5 worms; Bus5, 1 ug/ml): 18.54 | Healthspan % increase wrt control (Bus5 worms; Bus5, 10 ug/ml): 23% | Median Lifespan % increase wrt control (Bus5 worms; Bus5, 10 ug/ml): 26% | Healthspan (Bus5 worms; Bus5, 10 ug/ml): 13.43 | Median Lifespan (Bus5 worms; Bus5, 10 ug/ml): 19.03 | Healthspan % increase wrt control (Bus5 worms; Bus5, 40 ug/ml): −6% | Median Lifespan % increase wrt control (Bus5 worms; Bus5, 40 ug/ml): 0.5% | Healthspan (Bus5 worms; Bus5, 40 ug/ml): 10.28 | Median Lifespan (Bus5 worms; Bus5, 40 ug/ml): 15.17 | changes in blood TNF-α levels (TNF-α): No significant changes | Healthspan (worms; FIG. 7 experiment, Control 3.0, listed as RDC5 (Evita)): 4.5 | Healthspan (worms; FIG. 7 experiment, Control 3.0, listed as RDC5 (Sigma)): 4.6 | Median Lifespan (worms; FIG. 7 experiment, Control 5.7, listed as RDC5 (Evita)): 7.1 | Median Lifespan (worms; FIG. 7 experiment, Control 5.7, listed as RDC5 (Sigma)): 7.8 | Max Lifespan (worms; FIG. 7 experiment, Control 8.7, listed as RDC5 (Evita)): 10.3 | Max Lifespan (worms; FIG. 7 experiment, Control 8.7, listed as RDC5 (Sigma)): 11.2 | Healthspan (worms; FIG. 8 experiment, Control 5.9): 7.8 | Median Lifespan (worms; FIG. 8 experiment, Control 8.1): 10.8 | Max Lifespan (worms; [5]): 13.8 | lifespan compared to control (worms; dosing on one third of days, except when dosing not commenced early in lifespan): significant increases | lifespan compared to control (worms; dosing on two thirds of days): significant increases | shape of dose response, worm lifespan extension (worms; in vivo): bell shaped dose response | effect on growth rate (S. Cerevisiae; S. Cerevisiae): without effecting growth rate | median lifespan of yeast cultures versus control treated cultures (S. Cerevisiae; S. Cerevisiae chronological lifespan): significantly longer | average peak level of tacrolimus ([1]; 0.3 mg oral capsule, healthy volunteers): approximately 3700 pg/mL | AUC(0-t) ([1]; human, blood, 0.3 mg oral capsule, healthy volunteers, read-out: average area under the curve AUC 0-t): ~23.5 ng·h/mL | concentration at 24 h ([1]; human, blood, 0.3 mg oral capsule, level after 24 hours of administration of each dose, healthy volunteers, read-out: average trough level of tacrolimus): ~0.22 ng/mL | expected trough level ([1]; two capsules, single dose of 0.6 mg): about 440 pg/mL | shape of dose response, response to oxidative stress (Osteoblast cells): bell shaped dose response | HDL [2, 6]: significant reductions | LDL [2, 6]: significant reductions | free fatty acids [2, 6]: reduction is not statistically significant | glycerol [2, 6]: reduction is not statistically significant | ketone bodies [2, 6]: reduction is not statistically significant | total cholesterol [2, 6]: significant reductions | triglycerides [2, 6]: significant reductions; also recorded: beneficial reduction | reduction in lactate dehydrogenase levels [2, 7]: 50% | reduction in total cholesterol [2, 7]: 40% | sub-cutaneous fat [3]: less | visceral fat / fat within the body cavity [3]: less | sub-cutaneous fat ([3]; listed as tacrolimus): akin to the 3 month old untreated animal | visceral fat / fat within the body cavity ([3]; listed as tacrolimus): much less | average body fat ([3]; rats at 24 months, control roughly 40%, 3 month rats roughly 20%): roughly 30% | age related weight gain ([4]; 1 mg/kg s.c. 6 days a week): did not show age related weight gain | survival of animals at the end of the study versus control ([4]; 1 mg/kg s.c. 6 days a week, 6 months): No significant differences | lighter than control treated age-matched rats at end of study ([4]; 6 month study, 24 months of age): 28%
